The text below walks through data of ChEMBL document CHEMBL4177718, “Discovery of molecular mechanism of a clinical herbal formula upregulating serum HDL-c levels in treatment of metabolic syndrome by in vivo and computational studies” (2018).

Molecules are shown by their SMILES.

The species named for this assay is Rattus norvegicus. Description: Up-regulation of ABCA1 protein expression in serum of Wistar rat model of metabolic syndrome fed with high-sugar-fat-diet for 15 weeks followed by high-fat emulsion for 2 weeks by ELISA. The format is functional. In general terms: In an ELISA, binding on a coated surface is turned into a signal by an enzyme label.
With `COc1cc(N)ccc1C(=O)/C=C/c1ccc(C)s1`, the “fold change (FC)” value is given as 1.5. Take `CCc1ccc(/C=C/C(=O)c2ccc(N)cc2O)cc1`: the “fold change (FC)” value is on record as 1.73. On to `Nc1ccc(C(=O)/C=C/c2ccc(-c3ccccc3)cc2)c(O)c1`, for which the “fold change (FC)” value was found to be 1.55.

On to `Nc1ccc(C(=O)/C=C/c2cccc(Oc3ccccc3)c2)c(O)c1`, for which the “fold change (FC)” value came to 1.76.

For the compound `COc1ccc(-c2ccc(/C=C/C(=O)c3ccc(N)cc3O)s2)cc1`, the “fold change (FC)” value amounted to 1.09.

Take `Nc1ccc(C(=O)/C=C/c2csc3ccccc23)c(O)c1`: the “fold change (FC)” value was found to be 2.31.

Consider `Nc1ccc(C(=O)/C=C/c2c[nH]c3ccccc23)c(O)c1`, for which the “fold change (FC)” value is given as 1.76.

For the compound `Nc1ccc(C(=O)/C=C/c2ccc3ccccc3c2)c(O)c1`, the “fold change (FC)” value is reported as 2.64.

As to `Nc1ccc(C(=O)/C=C/c2ccc3c(c2)OCO3)c(O)c1`, the “fold change (FC)” value was 1.92. Consider `Cc1ccc(CCC(=O)c2ccc(N)cc2O)o1`, for which the “fold change (FC)” value came out at 1.9. For `Nc1ccc(C(=O)CCc2ccc3ccccc3c2)c(O)c1`, the “fold change (FC)” value came out at 1.34. On to `COc1cc(N(C)C)ccc1C(=O)/C=C/c1ccc(C)o1`, for which the “fold change (FC)” value is reported as 1.57. Consider `COc1cc(N(C)C)ccc1C(=O)/C=C/c1ccc2ccccc2c1`, for which the “fold change (FC)” value was found to be 1.35. As to `COc1cc(N)ccc1C(=O)/C=C/c1ccc2ccccc2c1`, the “fold change (FC)” value was found to be 0.88. Take `COc1cc(N)ccc1C(=O)/C=C/c1ccc(C)o1`: the “fold change (FC)” value was 1.2. On to `CCOc1ccc(/C=C/C(=O)c2ccc(N)cc2OC)cc1`, for which the “fold change (FC)” value is reported as 1.06. With `Cc1ccc(/C=C/C(=O)c2ccc(N(C)C)cc2O)o1` the figure was 1.02; with `CC(=O)Nc1ccc(C(=O)/C=C/c2ccc(C)s2)c(O)c1`, 1.08; with `O=c1cc(-c2c[nH]c3ccccc23)oc2cc(O)ccc12`, 1.9.

Regarding `O=c1cc(-c2csc3ccccc23)oc2cc(O)ccc12`, the “fold change (FC)” value is 1.44. On to `O=C(O)c1ccc(-c2cc(=O)c3ccc(O)cc3o2)cc1`, for which the “fold change (FC)” value was found to be 1.66. With `CC(C)c1ccc(-c2cc(=O)c3ccc(O)cc3o2)cc1` the figure was 1.22; with `O=c1cc(-c2cccc(Oc3ccccc3)c2)oc2cc(O)ccc12`, 1.17.

On to `O=c1cc(-c2ccc(-c3ccccc3)cc2)oc2cc(O)ccc12`, for which the “fold change (FC)” value is reported as 1.15.

Consider `COc1ccc(-c2ccc(-c3cc(=O)c4ccc(O)cc4o3)s2)cc1`, for which the “fold change (FC)” value is 1.03.

In the case of `Cc1ccc(-c2cc(=O)c3ccc(N)cc3o2)o1`, the “fold change (FC)” value turned out to be 1.3. In the case of `Cc1ccc(-c2cc(=O)c3ccc(N)cc3o2)s1`, the “fold change (FC)” value is listed as 1.47.

Regarding `CCOc1ccc(-c2cc(=O)c3ccc(N)cc3o2)cc1`, the “fold change (FC)” value stood at 1.37. On to `Cc1ccc(/C=C/C(=O)c2ccc(N)cc2O)o1`, for which the “fold change (FC)” value is listed as 2.09. `Cc1ccc(/C=C/C(=O)c2ccc(N)cc2O)s1`: the “fold change (FC)” value is given as 2. In the case of `CCOc1ccc(/C=C/C(=O)c2ccc(N)cc2O)cc1`, the “fold change (FC)” value was found to be 1.92.

For the compound `CSc1ccc(/C=C/C(=O)c2ccc(N)cc2O)cc1`, the “fold change (FC)” value came to 1.26. Regarding `COc1cccc(/C=C/C(=O)c2ccc(N)cc2O)c1`, the “fold change (FC)” value is given as 2.09. With `Nc1ccc(C(=O)/C=C/c2ccc(F)cc2)c(O)c1`, the “fold change (FC)” value amounted to 1.36. With `Nc1ccc(C(=O)/C=C/c2ccc(Cl)cc2)c(O)c1` the figure was 1.16; with `Nc1ccc(C(=O)/C=C/c2cc(C(F)(F)F)cc(C(F)(F)F)c2)c(O)c1`, 1.12. For the compound `COc1cc(/C=C/C(=O)c2ccc(N)cc2O)cc(OC)c1OC`, the “fold change (FC)” value stood at 0.98. On to `CC(C)c1ccc(/C=C/C(=O)c2ccc(N)cc2O)cc1`, for which the “fold change (FC)” value worked out at 2.05. Consider `O=c1cc(-c2ccc3ccccc3n2)oc2cc(O)ccc12`, for which the “fold change (FC)” value is 1.36. With `O=c1cc(-c2ccc3ccccc3c2)oc2cc(O)ccc12` the figure was 1.57; with `COc1ccc(/C=C/C(=O)c2ccc(N)cc2O)cc1OC`, 1.86.
